According to US11712483B2, “Activatable membrane-interacting peptides and methods of use” (priority 2013, dated 2023):
“Also recorded” adds a separate entry of the source. Where no end group is shown, it is not given here. Cy3 = cyanine3 fluorescent dye; Cy5 = cyanine5 fluorescent dye

Key:
[1] = tested on: blood clots formed in vitro; assay: Blood clots formed on glass slides; design: species or system bovine; conditions: for accumulation on actively clotting platelets / localization to blood clots: clots on glass slides, fluorescence microscopy; for accumulation on red blood cells: without activation
Protocol: Whole bovine blood was mixed at a ratio of 5:1 with a 10 nM solution of promolecules bearing the fluorescent dye Cy5. The mixture was then added to 1 uL of activated coagulation factor Xa (10 nM) and calcium chloride (10 mM) to initiate clot formation on the surface of a conventional microscopy slide. The mixture was then stirred with the tip of a plastic pipette for four minutes until a clot was formed. The clot was then pulled gently across the slide with the goal of flattening out the clot for better imaging. A coverslip was then placed on top of the slide and held in place by dabbing the corners with adhesive. The slide was then imaged within a few hours using an epifluorescence microscope (Nikon Eclipse Ti-E) bearing the appropriate filters for detection of the Cy5 dye.

[2] = Förster resonance energy transfer (FRET) to fluorescent liposomes; assay type: binding; conditions: 100 nm liposomes, entirely PS
Protocol: Förster resonance energy transfer (FRET) relies upon the ability of light to be exchanged from one fluorescent moiety to another, which becomes possible only when the moieties are in close proximity to one another, typically less than about 30 Angstroms. Liposomes having similar composition to that used in the intrinsic fluorescence assays were prepared with 1% DiO, a lipid-soluble fluorescent compound whose fluorescence emission characteristics match the excitation wavelength of the promolecule when conjugated to […]. DiO-containing liposomes (1 μM) were mixed with Cy5 containing promolecules or activated peptide portions (20 nM), and the spectral characteristics of the mixture were determined. Cy3 was excited with 545 nm light, and the emission of Cy5 was measured over 650 to 700 nm. The activated peptide portions, but not the promolecules, enabled fluorescence energy transfer, which confirmed the observations made using intrinsic fluorescence.

[3] = target: thrombin (Homo sapiens, UniProt P00734); assay: Thrombin-mediated proteolysis by reverse phase HPLC; assay type: biochemical; conditions: digestion by thrombin, Michaelis-Menten
Protocol: Thrombin-mediated proteolysis of promolecules was performed by incubating the enzyme at concentrations ranging from 0.1 to 2 nM with a 20 to 100 μM solution of the promolecule at 37° C. for up to three or a full twenty-four hours to ensure completeness. The extent of proteolysis was assessed by reverse phase high-pressure liquid chromatography. Samples were run over a C18 column using an acetonitrile gradient of 20% to 80% over a period of 30 minutes. Complete hydrolysis was evident by the absence of the initial peak corresponding to the promolecule, and was further validated using mass spectrometry.

[4] = tested on: mouse pancreatic duct carcinoma cells; assay: DRAQ7 exclusion, mouse pancreatic duct adenocarcinoma cells; assay type: cell-based; conditions: prolonged incubation, high micromolar concentrations, FIGS. 10 and 11
Protocol: DRAQ7 is a far-red fluorescent DNA dye that stains the nuclei of dead and permeabilized cells. Unlike trypan blue, it can be combined with other commonly used fluorophores, such as Oregon Green 488 and Cy5. Healthy cells exclude the dye, and no increase in fluorescence is observed. […] When complexed with double stranded DNA, the dye has a maximum excitation wavelength of 643 nm and a maximum emission wavelength of 694 nm. Cells incubated with the promolecule or the activated peptide form of the promolecule in the presence or absence of thrombin (5 nM) were exposed to DRAQ7 (3 μM) for at least 10 minutes and then imaged using two different approaches. In the first approach, the cells were mouse pancreatic duct adenocarcinoma cells, the incubation buffer contained wheat germ agglutinin conjugated with Oregon Green 488, and the cells were visualized with a Nikon Eclipse Ti-E bearing the appropriate filters. In the second approach, mouse X3 fibroblast cells bearing a modified Histone 2A gene fused to green fluorescent protein (GFP) were imaged using an Acumen Ex3—a commercially available confocal microscopy instrument specifically designed for high throughput, content rich and highly multiplexed data applicable to a wide range of biological assays.

[5] = in vivo
Protocol: In order to extend the circulating half-life of the promolecule, it is covalently linked to a molecule of polyethylene glycol (PEG) having a moleculer weight of 1,000 Daltons. The PEG-modified promolecule is administered to a subject and the circulating half-life is measured.

[6] = Intrinsic tryptophan fluorescence with liposomes or detergent micelles; assay type: binding
Excerpt: Intrinsic fluorescence was used to characterize promolecules containing one or more tryptophan residues in portion A. As the spectral properties of tryptophan are dependent upon its local environment, this provides unequivocal definition of its partitioning into phospholipid membranes. In aqueous conditions, tryptophan typically emits light near 355 nm when excited with 285 nm light. In contrast, the emitted light is […] or lowered when the tryptophan of the peptide is present in an apolar environment, such as the interior of a phospholipid membrane, and produces a maximum emission wavelength typically in the range of 325 to 345 nm. Both the magnitude and wavelength of light emitted under this fluorescence assay are influenced by the properties of the peptide and the composition of the phospholipid membrane. […] A typical assay employed an 8 μM solution of promolecules and liposomes of defined size (100 nm in diameter, 0.5 mM) composed of phosphatidylserine or phosphatidylcholine or a combination thereof to test the influence of negatively charged or zwitterionic surfaces. […] Time-dependent measurement of the fluorescence emission spectra was used to characterize the activation of the promolecules by thrombin (2 nM) or by other proteases (10 nM or higher).

[7] = tested on: HT29 cells; assay: Fluorescence microscopy of HT29 cells; assay type: cell-based
Protocol: (§1) Cy5 fluorescent dye was conjugated to this promolecule via an N-terminal thiol (module X^1a) to create a promolecule having the structure X^1a-A-X^2—Z, and its interaction with HT29 cells was analyzed using fluorescence microscopy. In this experiment, cells were grown to confluence on glass bottom microwell dishes and the peptide (10 uM) incubated with the cells for between one to three hours and then washed for staining with fluorescently-labeled wheat germ agglutinin. After such staining the cells were covered in typical cell culture media and allowed to grow overnight for another round of imaging.

[8] = tested on: MDA-MB-231 cells; assay: Trypan blue dye exclusion, MDA-MB-231 cells; assay type: cell-based; conditions: 1 hour, 37° C.
Protocol: (§2) To examine the interaction of the promolecule and its activated form with cell membranes rather than artificial membranes, the promolecules were incubated with cells of the breast cancer cell line MDA-MB-231 (approximately 100,000 cells in a volume of […]) for 1 hour at 37° C. in Dulbecco's modified Eagle medium containing 1% fetal bovine serum, and cell viability was assessed using Trypan blue dye exclusion.

[9] = target: T1, matriptase (Homo sapiens, UniProt Q9Y5Y6); assay: Selective activation in MDA-MB-231 cells, trypan blue, matriptase; assay type: cell-based; conditions: exogenous addition of different proteases
T1 sequence (Q9Y5Y6 615-855 limits assumed): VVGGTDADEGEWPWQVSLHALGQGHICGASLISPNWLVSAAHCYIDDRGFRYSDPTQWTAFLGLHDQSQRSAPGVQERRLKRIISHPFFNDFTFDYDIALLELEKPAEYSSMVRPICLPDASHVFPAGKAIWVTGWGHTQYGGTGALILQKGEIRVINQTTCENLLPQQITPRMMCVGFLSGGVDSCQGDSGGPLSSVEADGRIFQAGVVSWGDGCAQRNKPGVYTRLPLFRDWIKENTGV
Protocol: as §2, §1

[10] = tested on: enteropeptidase or thrombin activity; assay: Fluorescence imaging in a subject, promolecule activated by either of two enzymes; assay type: in vivo; conditions: administered to a subject
Protocol: In order to activate this promolecule, either X^2a or X^2b must be cleaved, so that this promolecule is activated by either thrombin or enteropeptidase activity. The molecule is administered to a subject, and is cleaved in areas having enteropeptidase or thrombin activity, causing portion A to separate from portion Z and interact with membranes in the vicinity.

In the case of “Cy5-CFVQWFSKFLGKLLPRSFLLQDPNDQYEPFW [SEQ ID NO: 52]”, the “accumulation on actively clotting platelets / localization to blood clots” value [1] is reported as “intense accumulation of the activated peptide form of the promolecule; also recorded: localization of the membrane-interacting peptide-containing cleavage product to blood clots” and the “accumulation on red blood cells” value [1] is reported as “did not accumulate on red blood cells”.
In the case of “(Cy3-K)ILGTILGLLKGLPRSFLLRNPNDKYEPFW (Cy3-KILGTILGLLKGLPRSFLLRNPNDKYEPFW; also: Cy3 conjugated to N-terminal Lys, attachment site not given here) [SEQ ID NO: 48, thrombin-cleavable promolecule with protonectin as portion A, Cy3 on N-terminal lysine]”, the “accumulation on actively clotting platelets / localization to blood clots” value [1] is reported as “intense accumulation of the active form of the promolecule; also recorded: localization of membrane-interacting peptide-containing cleavage products in blood clots”, the “accumulation on red blood cells” value [1] is reported as “did not accumulate on red blood cells” and the “FRET to DiO liposomes composed of phosphatidylserine (PS)” value [2] is reported as “do not associate closely enough with the PS liposomes to enable FRET”. For the same substance, the Km [3] was 0.2 µM.
For “FVQWFSKFLGKLLPRSFLLQDPNDQYEPFW [SEQ ID NO: 47]”, the “peptide-to-cell ratio at which cells did not exclude trypan blue or DRAQ7 (no longer viable)” value [4] was “greater than 10^9 to one”.
With “PEG-modified promolecule: SEQ ID NO: 52 covalently linked to polyethylene glycol of 1,000 Daltons (CFVQWFSKFLGKLLPRSFLLQDPNDQYEPFW; not fully specified (residue 1, N-terminus); printed as Cy5-CFVQWFSKFLGKLLPRSFLLQDPNDQYEPFW; also: PEG 1000 Da attached, site not given here)” the “circulating half-life versus non-PEG-modified form” value [5] was “longer circulating half-life than the non-PEG-modified form”.
For “(Cy5)FVQWFSKFLGKLLKSRAEDEGLYDDD (Cy5-FVQWFSKFLGKLLKSRAEDEGLYDDD; not fully specified; printed as (Cy5)FVQWFSKFLGKLLKSRAEDEGLYDDD) [SEQ ID NO: 49, matriptase-cleavable promolecule; tested as A-X^2—Z and with Cy5 via N-terminal thiol]”, the “maximum emission wavelength / spectral properties, intrinsic tryptophan fluorescence” value ([6]; in presence of PC or PS liposomes or detergent micelles compared to buffer alone (PBS)) was “undergo a limited change”, the “interaction with phospholipid membranes, intrinsic fluorescence” value ([6]; promolecule A-X^2—Z before activation) was “moderate restricted interaction with phospholipid membranes” and the “fluorescent signal on cell surface” value ([7]; Cy5-conjugated promolecule, after co-incubation) was “accumulated on the surface of the HT29 cells; also recorded: detectable on the surface of cells”. For the same substance, the internalization into cells ([7]; after washing and further incubation (24 hours)) was “internalized into the cells; also recorded: localized in punctate spheres inside the cells”, the “toxicity / cell death, trypan blue dye uptake” value [8] was “Limited toxicity; also recorded: low toxicity; also recorded: did not” and the “activation by matriptase (diminished trypan blue dye exclusion)” value [9] was “selectively activated by matriptase”.
In the case of “(Cy5)CFFWLSKIFPRDDDDKDD (Cy5-CFFWLSKIFPRDDDDKDD) [SEQ ID NO: 53]”, the “detection of Cy5 dye by fluorescence microscopy” value [10] is reported as “the Cy5 dye is detected in areas having enteropeptidase or thrombin activity”.
